Where a name gives a salt, the structure may show the parent alone.
Legend:
IL-6 = assay: THP-1 AlphaLISA IL-6 cytokine assay; assay type: cell-based; conditions: Homo sapiens, THP-1, differentiated THP-1 cells; Table 2, compounds of formula (II)
Procedure: (§1) Biological Example 1—THP-1 AlphaLISA IL-1β and IL-6 Cytokine Assay Measuring Inhibitory Effects on IL-1, and IL-6 Cytokine Output from THP-1s The cytokine inhibition profiles of compounds of formula (I) were determined in a differentiated THP-1 cell assay. All assays were performed in RPMI-1640 growth medium (Gibco), supplemented with 10% fetal bovine serum (FBS; Gibco), 1% penicillin-streptomycin and 1% sodium pyruvate unless specified otherwise. The IL-1β and IL-6 cytokine inhibition assays were each run in a background of differentiated THP-1 cells as described below. All reagents described were from Sigma-Aldrich unless specified otherwise. Compounds were prepared as 10 mM DMSO stocks. THP-1 cells were expanded as a suspension up to 80% confluence in appropriate growth medium. Cells were harvested, suspended, and treated with an appropriate concentration of phorbol 12-myristate 13-acetate (PMA) over a 72 hr period (37° C./5% CO2). Following 72 hrs of THP-1 cell incubation, cellular medium was removed and replaced with fresh growth media containing 1% of FBS. Working concentrations of compounds were prepared separately in 10% FBS treated growth medium and pre-incubated with the cells for 30 minutes (37° C./5% CO2). Following the 30 minute compound pre-incubation, THP-1s were treated with an appropriate concentration of LPS and the THP-1s were subsequently incubated for a 24 hr period (37° C./5% CO2). An appropriate final concentration of Nigericin was then dispensed into the THP-1 plates and incubated for 1 hour (37° C./5% CO2) before THP-1 supernatants were harvested and collected in separate polypropylene 96-well holding plates. Reagents from each of the IL-1β and IL-6 commercial kits (Perkin Elmer) were prepared and run according to the manufacturer's instructions. Subsequently, fluorescence signal detection in a microplate reader was measured (EnVision® Multilabel Reader, Perkin Elmer). Percentage inhibition was calculated per cytokine by normalizing the sample data to the high and low controls used within each plate (+/−LPS respectively). Percentage inhibition was then plotted against compound concentration and the 50% inhibitory concentration (IC50) was determined from the resultant concentration-response curve.

hepatocytes [1] = assay: Hepatocyte stability assay, human; assay type: in vitro ADME; conditions: 10 μM compound
From the text: (§2) Biological Example 3—Hepatocyte Stability Assay
(§3) Defrosted cryo-preserved hepatocytes (viability >70%) are used to determine the metabolic stability of a compound via calculation of intrinsic clearance (CIint; a measure of the removal of a compound from the liver in the absence of blood flow and cell binding). Clearance data are particularly important for […] as they can be used in combination with in vivo data to predict the half-life and oral bioavailability of a drug.
(§4) The metabolic stability in hepatocytes assay involves a time-dependent reaction using both positive and negative controls. The cells must be pre-incubated at 37° C. then spiked with test compound (and positive control); samples taken at pre-determined time intervals are analysed to monitor the change in concentration of the initial drug compound over 60 minutes. A buffer incubation reaction (with no hepatocytes present) acts as a negative control and two cocktail solutions, containing compounds with known high and low clearance values (verapamil/7-hydroxycoumarin and propranolol/diltiazem), act as positive controls. • 1. The assay is run with a cell concentration of 0.5×10^6 cells/mL in Leibovitz buffer. • 2. All compounds and controls are run in duplicate. • 3. Compound concentration is 10 μM. • 4. All compounds and controls are incubated with both cells and buffer to show turnover is due to hepatic metabolism. • 5. All wells on the incubation plate will have 326.7 μL of either cells or buffer added. • 6. Prior to assay, cell and buffer-only incubation plates are preincubated for 10 mins at 37° C. • 7. The assay is initiated by adding compounds, 3.3 μL of 1 mM in 10% DMSO-90% Buffer; final DMSO concentration is 0.1%. • 8. Samples are taken at regular timepoints (0, 5, 10, 20, 40, 60 min) until 60 mins. • 9. Sample volume is 40 μL and it is added to 160 μL of crash solvent (acetonitrile with internal standard) and stored on ice. • 10. At the end of the assay, the crash plates are centrifuged at 3500 rpm for 20 mins at 4° C. • 11. 80 μL of clear supernatant is removed and mixed with 80 μL of deionised water before being analysed by LC-MS/MS.
(§5) Raw LC-MS/MS data are exported to, and analysed in, Microsoft Excel for determination of intrinsic clearance. The percentage remaining of a compound is monitored using the peak area of the initial concentration as 100%. Intrinsic clearance and half-life values are calculated using a graph of the natural log of percentage remaining versus the time of reaction in minutes. Half-life (min) and intrinsic clearance (CIint in μL min^−1 10^−6 cells) values are calculated using the gradient of the graph (the elimination rate constant, k) and Equations 1 and 2.

[2] = Hepatocyte stability assay, human; assay type: in vitro ADME; conditions: cryopreserved hepatocytes, 10 μM compound
From the text: as §2, §3, §4, §5

IL-1β = assay: THP-1 AlphaLISA IL-1β cytokine assay; assay type: cell-based; conditions: Homo sapiens, differentiated THP-1 cells
Procedure: as §1

hepatocytes [3] = assay: Hepatocyte stability assay, mouse; assay type: in vitro ADME; conditions: 10 μM compound
From the text: as §2, §3, §4, §5

[4] = Hepatocyte stability assay, mouse; assay type: in vitro ADME; conditions: mouse, cryopreserved hepatocytes, 10 μM compound
From the text: as §2, §3, §4, §5

NRF2 = NRF2 activation assay (DiscoverX PathHunter NRF2 translocation kit, U2OS cells); assay type: cell-based
Procedure: Biological Example 2—NRF2 Activation Assay Measuring Compound Activation Effects on the Anti-Inflammatory Transcription Factor NRF2 in DiscoverX PathHunter NRF2 Translocation Kit Potency and efficacy of compounds of formula (I) against the target of interest to activate NRF2 (nuclear factor erythroid 2-related factor 2) were determined using the PathHunter NRF2 translocation kit (DiscoverX). The NRF2 translocation assay was run using an engineered recombinant cell line, utilising enzyme fragment complementation to determine activation of the Keap1-NRF2 protein complex and subsequent translocation of NRF2 into the nucleus. Enzyme activity was quantified using a chemiluminescent substrate consumed following the formation of a functional enzyme upon PK-tagged NRF2 translocation into the nucleus. Additionally, a defined concentration of dimethyl fumarate was used as the ‘High’ control to normalise test compound activation responses to. U2OS PathHunter eXpress cells were thawed from frozen prior to plating. Following plating, U2OS cells were incubated for 24 hrs (37° C./5% CO2) in commercial kit provided cell medium. Following 24 hrs of U2OS incubation, cells were directly treated with an appropriate final concentration of compound. Following compound treatment, the U2OS plates were incubated for a further 6 hours (37° C./5% CO2) before detection reagent from the PathHunter NRF2 commercial kit was prepared and added to test plates according to the manufacturer's instructions. Subsequently, the luminescence signal detection in a microplate reader was measured (PHERAstar®, BMG Labtech). Percentage activation was calculated by normalising the sample data to the high and low controls used within each plate (+/−DMF). Percentage activation/response was then plotted against compound concentration and the 50% activation concentration (EC50) was determined from the plotted concentration-response curve.

[5] = Table 2, compounds of formula (II)
[6] = +GSH, normalised to dimethyl fumarate high control, Table 3
[7] = −GSH, normalised to dimethyl fumarate high control, Table 3
[8] = +GSH, Table 4, compounds of formula (II)
[9] = −GSH, Table 4, compounds of formula (II)

Compound	IC50 (IL-6)	CIint (hepatocytes [1]; Table 6)	half-life at 10 μM ([2]; Table 6, read-out: T½)	IC50 (IL-1β; [5])	CIint (hepatocytes [3]; Table 6)	half-life at 10 μM ([4]; Table 6, read-out: T½)	CIint (hepatocytes [1]; Table 5)	half-life at 10 μM ([2]; Table 5, read-out: T½)	IC50 (IL-1β; LPS then Nigericin, Table 1)	EC50 (NRF2; +GSH, Table 3)	NRF2 activation Emax (NRF2; [6])	EC50 (NRF2; −GSH, Table 3)	NRF2 activation Emax (NRF2; [7])	CIint (hepatocytes [3]; Table 5)	half-life at 10 μM ([4]; Table 5, read-out: T½)	EC50 (NRF2; [8])	NRF2 activation Emax (NRF2; [8])	EC50 (NRF2; [9])	NRF2 activation Emax (NRF2; [9])
O=C(O)/C=C/C(=O)OC1(c2cc(Cl)cc(OC(F)(F)F)c2)CCC1 [Intermediate 41, (E)-4-(1-(3-chloro-5-(trifluoromethoxy)phenyl)cyclobutoxy)-4-oxobut-2-enoic acid]	6 to 30 µM	++++ (++++ means 5-15)	> 100 min	6 to 30 µM	++ (++ means >30-110)	30 to 100 min													
O=C(O)/C=C/C(=O)OC1(c2ccc(C(F)(F)F)cc2)COC1 [Intermediate 18, (E)-4-oxo-4-((3-(4-(trifluoromethyl)phenyl)oxetan-3-yl)oxy)but-2-enoic acid]	6 to 30 µM	++ (++ means >30-110)	30 to 100 min	6 to 30 µM	++ (++ means >30-110)	30 to 100 min													
O=C(O)/C=C/C(=O)OC(c1ccc(C(F)(F)F)cc1)C(F)(F)F (single isomer, unassigned) [Intermediate 44, (E)-4-oxo-4-(2,2,2-trifluoro-1-(4-(trifluoromethyl)phenyl)ethoxy)but-2-enoic acid]	< 6 µM	++ (++ means >30-110)	5 to 29 min	< 6 µM	+ (+ means >110-277)	< 5 min													
CCCCCC[C@@H](C)OC(=O)/C=C/C(=O)OCC(=O)O [Example 13, 2-[(E)-4-[(1R)-1-methylheptoxy]-4-oxo-but-2-enoyl]oxyacetic acid]							+++ (+++ means 50-149)	5 to 29 min	2.5 to 6.1 µM	20 to 100 µM	++ (++ means 100-149)	< 2 µM	+++ (+++ means 150-199%)	+ (+ means >277)	< 5 min				
O=C(O)/C=C/C(=O)OC1(c2ccc(C(F)(F)F)s2)CCC1 [Intermediate 36, (E)-4-oxo-4-(1-(5-(trifluoromethyl)thiophen-2-yl)cyclobutoxy)but-2-enoic acid]		++++ (++++ means 5-15)	> 100 min	< 6 µM	++ (++ means >30-110)	30 to 100 min										< 23 µM	++ (++ means >87-114%)	< 23 µM	+++ (+++ means >114-150%)
CC(C)(COC(=O)/C=C/C(=O)OC1CCCCCCC1)C(=O)O [Example 7, (E)-3-((4-(cyclooctyloxy)-4-oxobut-2-enoyl)oxy)-2,2-dimethylpropanoic acid]							+++ (+++ means 50-149)	5 to 29 min	< 2.5 µM	6 to 20 µM	+ (+ means >17.1-99)	< 2 µM	++++ (++++ means 200-250%)	+ (+ means >277)	< 5 min				
O=C(O)/C=C/C(=O)OC1CCCCCCC1 [Intermediate 6, (E)-4-(cyclooctyloxy)-4-oxobut-2-enoic acid]		++++ (++++ means 5-15)	> 100 min	6 to 30 µM	++ (++ means >30-110)	5 to 29 min										< 23 µM	++++ (++++ means >150%)	< 23 µM	++++ (++++ means >150%)
O=C(/C=C/C(=O)OC1CCCCCCC1)OCCc1nnn[nH]1 [Example 5, 2-(1H-tetrazol-5-yl)ethyl cyclooctyl fumarate]							++ (++ means 150-277)	5 to 29 min	2.5 to 6.1 µM	20 to 100 µM	+ (+ means >17.1-99)	2.1 to 6 µM	+++ (+++ means 150-199%)	+ (+ means >277)	< 5 min				
O=C(O)/C=C/C(=O)OC1CCCCCC1 [Intermediate 8, (E)-4-(cycloheptyloxy)-4-oxobut-2-enoic acid]		+++ (+++ means >15-30)	30 to 100 min	30 to 50 µM	++ (++ means >30-110)	30 to 100 min										23 to 48.4 µM	+++ (+++ means >114-150%)	< 23 µM	++++ (++++ means >150%)
